From patent publication US20210206760A1, “PHENYL-SUBSTITUTED DIHYDRONAPHTHYRIDINE COMPOUND AND USE THEREOF” (SUNSHINE LAKE PHARMA CO., LTD., priority 2018, published 2021)

Molecular target: T1, mineralocorticoid receptor (MR) (Homo sapiens, UniProt P08235)
T1 construct: expressed in transfected cells; host or cells: HEK293 (human embryonic kidney cells)
T1 sequence (P08235 726-964 limits assumed): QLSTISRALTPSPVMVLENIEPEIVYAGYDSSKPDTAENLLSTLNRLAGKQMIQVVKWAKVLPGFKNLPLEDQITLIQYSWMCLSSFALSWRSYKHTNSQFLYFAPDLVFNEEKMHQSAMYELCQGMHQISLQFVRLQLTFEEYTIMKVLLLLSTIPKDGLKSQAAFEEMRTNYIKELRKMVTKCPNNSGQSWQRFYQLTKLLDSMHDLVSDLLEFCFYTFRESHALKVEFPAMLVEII
Assay: Activity test in vitro: Gal4 DBD-MR LBD dual luciferase reporter assay in HEK293 cells
Type: cell-based
Details: HEK293 cells transfected with Gal4 DBD-MR LBD and firefly luciferase reporter; agonist aldosterone at EC80; 18 hours incubation; Renilla-corrected
Text: Example a Activity Test In Vitro
Utilizing the characteristics of luciferase binding to the substrate to produce a chemiluminescence reaction, the fused plasmid of the Gal4 DNA binding domain (DBD) containing the ligand binding domain (LBD) of mineralocorticoid receptor (MR) and the firefly luciferase reporter gene plasmid controlled by Gal4 UAS (upstream activation sequences) were transfected into human embryonic kidney cells (HEK293). The changes in mineralocorticoid receptor activity between before and after stimulation or the influence of different stimuli on mineralocorticoid receptor activity was judged by the level of firefly luciferase activity. At the same time, in order to reduce the impact of internal change factors on the accuracy of the experiment, the plasmid with Renilla luciferase gene was used as a control plasmid to transfect cells to provide an internal control for transcription activity, so that the test results were not interfered by changes in experimental conditions.
1) HEK293 cells were collected after trypsinization and the cell density was adjusted to 500,000 cells/mL;
2) FuGENE HD transfection reagent was added into the cell suspension;
3) The above cell suspension was seeded into a 96-well cell culture plate at a density of 100 μL/well, and incubated for 24 hours at 37° C. in 5% CO2;
4) A series of concentrations of the test compound solution and the EC80 concentration of agonist aldosterone were added into each well and incubated for 18 hours;
5) Firefly and Renilla luciferase signals were detected through Promega dual luciferase reporter assay system.
1) After obtaining the firefly luciferase signal (F) and the Renilla luciferase signal (R), using the Renilla luciferase signal for correction, i.e., the F/R value was used to calculate the subsequent inhibition rate;
2)% inhibition rate=(Max−X)/(Max−Min)×100%, where Max is the F/R value of the positive control well, Min is the F/R value of the negative control well, and X is the F/R value of test compound well of different concentrations;
3) IC50 calculation was performed by GraphPrism 5.0 mapping software.

Row | IC50 [nM] | SMILES
1 | 19.4 | COc1cc(C#N)ccc1C1C(C(N)=O)=C(C)Nc2c(C)cnc(OCC3CC3)c21 (centres unmarked) [Example 1, 4-(4-Cyano-2-methoxyphenyl)-5-(cyclopropylmethoxy)-2,8-dimethyl-1,4-dihydro-1,6-naphthyridine-3-carboxamide]
2 | 28.7 | COc1cc(C#N)ccc1C1C(C(N)=O)=C(C)Nc2c(C)cnc(OCC3CCCC3)c21 (centres unmarked) [Example 3, 4-(4-Cyano-2-methoxyphenyl)-5-(cyclopentylmethoxy)-2,8-dimethyl-1,4-dihydro-1,6-naphthyridine-3-carboxamide]
3 | 17.8 | COc1cc(C#N)ccc1C1C(C(N)=O)=C(C)Nc2c(C)cnc(OCC3CCC3)c21 (centres unmarked) [Example 5, 4-(4-cyano-2-methoxyphenyl)-5-(cyclobutylmethoxy)-2,8-dimethyl-1,4-dihydro-1,6-naphthyridine-3-carboxamide]
4 | 3.44 | COc1cc(C#N)ccc1C1C(C(N)=O)=C(C)Nc2c(C)cnc(OC3CCC3)c21 (centres unmarked) [Example 7, 4-(4-Cyano-2-methoxyphenyl)-5-(cyclobutyloxy)-2,8-dimethyl-1,4-dihydro-1,6-naphthyridine-3-carboxamide]
5 | 7.74 | COc1cc(C#N)ccc1C1C(C(N)=O)=C(C)Nc2c(C)cnc(OC3CCCC3)c21 (centres unmarked) [Example 8, 4-(4-Cyano-2-methoxyphenyl)-5-(cyclopentyloxy)-2,8-dimethyl-1,4-dihydro-1,6-naphthyridine-3-carboxamide]
